Test results from patent US5843889A, “Glycopeptide antibiotic derivatives” (Eli Lilly and Company, priority 1997, dated 1998).
Converted amounts (≈) assume the structure as drawn.

Columns and labels:
Assay in all cases: MIC, standard broth micro-dilution assay
Type in all cases: cell-based
[1] = system: Entercoccus gallinarum 245
Procedure: (§1) The formula I compounds have in vitro and in vivo activity against Gram-positive pathogenic bacteria. The MIC's were determined using a standard broth micro-dilution assay.

[2] = system: Entercoccus faecalis 276
Procedure: as §1

[3] = system: Entercoccus faecalis 2041
Procedure: as §1

MIC [1] [µg/mL]	MIC [2] [µg/mL]	MIC [3] [µg/mL]	SMILES
≤ 0.06	1 (≈ 0.561 µM)	0.5 (≈ 0.28 µM)	CNC(CC(C)C)C(=O)NC1C(=O)NC(CC(N)=O)C(=O)NC2C(=O)NC3C(=O)NC(C(=O)NC(C(=O)O)c4cc(O)cc(O)c4-c4cc3ccc4O)C(OC3CC(C)(N)C(O)C(C)O3)c3ccc(c(Cl)c3)Oc3cc2cc(c3OC2OC(CO)C(O)C(O)C2OC2CC(C)(NCc3cc4ccccc4c4ccccc34)C(O)C(C)O2)Oc2ccc(cc2Cl)C1O (stereo not drawn) [Compound 11, 9-phenanthranylmethyl]
≤ 0.06	≤ 0.06	≤ 0.06	CNC(CC(C)C)C(=O)NC1C(=O)NC(CC(N)=O)C(=O)NC2C(=O)NC3C(=O)NC(C(=O)NC(C(=O)O)c4cc(O)cc(O)c4-c4cc3ccc4O)C(OC3CC(C)(N)C(O)C(C)O3)c3ccc(c(Cl)c3)Oc3cc2cc(c3OC2OC(CO)C(O)C(O)C2OC2CC(C)(NCc3ccc(Oc4ccccc4Cl)c([N+](=O)[O-])c3)C(O)C(C)O2)Oc2ccc(cc2Cl)C1O (stereo not drawn) [Compound 88, 4-[2-chlorophenoxy]-3-nitrobenzyl]
≤ 0.06	≤ 0.06	≤ 0.06	CNC(CC(C)C)C(=O)NC1C(=O)NC(CC(N)=O)C(=O)NC2C(=O)NC3C(=O)NC(C(=O)NC(C(=O)O)c4cc(O)cc(O)c4-c4cc3ccc4O)C(OC3CC(C)(N)C(O)C(C)O3)c3ccc(c(Cl)c3)Oc3cc2cc(c3OC2OC(CO)C(O)C(O)C2OC2CC(C)(NCc3cc(C)cc(C)c3)C(O)C(C)O2)Oc2ccc(cc2Cl)C1O (stereo not drawn) [Compound 89, 3,5-dimethylbenzyl]
2 (≈ 1.11 µM)	≤ 0.06	≤ 0.06	CNC(CC(C)C)C(=O)NC1C(=O)NC(CC(N)=O)C(=O)NC2C(=O)NC3C(=O)NC(C(=O)NC(C(=O)O)c4cc(O)cc(O)c4-c4cc3ccc4O)C(OC3CC(C)(N)C(O)C(C)O3)c3ccc(c(Cl)c3)Oc3cc2cc(c3OC2OC(CO)C(O)C(O)C2OC2CC(C)(NCc3ccc(OC(F)(F)C(F)F)cc3)C(O)C(C)O2)Oc2ccc(cc2Cl)C1O (stereo not drawn) [Compound 121, 4-[1,1,2,2-tetrafluoroethoxy]benzyl]
4 (≈ 2.29 µM)	≤ 0.06	≤ 0.06	CNC(CC(C)C)C(=O)NC1C(=O)NC(CC(N)=O)C(=O)NC2C(=O)NC3C(=O)NC(C(=O)NC(C(=O)O)c4cc(O)cc(O)c4-c4cc3ccc4O)C(OC3CC(C)(N)C(O)C(C)O3)c3ccc(c(Cl)c3)Oc3cc2cc(c3OC2OC(CO)C(O)C(O)C2OC2CC(C)(NCc3ccc(OC(F)F)cc3)C(O)C(C)O2)Oc2ccc(cc2Cl)C1O (stereo not drawn) [Compound 72, 4-difluormethoxybenzyl]
2 (≈ 1.12 µM)	0.5 (≈ 0.28 µM)	≤ 0.06	CNC(CC(C)C)C(=O)NC1C(=O)NC(CC(N)=O)C(=O)NC2C(=O)NC3C(=O)NC(C(=O)NC(C(=O)O)c4cc(O)cc(O)c4-c4cc3ccc4O)C(OC3CC(C)(N)C(O)C(C)O3)c3ccc(c(Cl)c3)Oc3cc2cc(c3OC2OC(CO)C(O)C(O)C2OC2CC(C)(NCc3ccc(N(C)c4ccccc4)cc3)C(O)C(C)O2)Oc2ccc(cc2Cl)C1O (stereo not drawn) [Compound 178, 4-[N-methylanilino]benzyl]
2 (≈ 1.08 µM)	≤ 0.06	≤ 0.06	CNC(CC(C)C)C(=O)NC1C(=O)NC(CC(N)=O)C(=O)NC2C(=O)NC3C(=O)NC(C(=O)NC(C(=O)O)c4cc(O)cc(O)c4-c4cc3ccc4O)C(OC3CC(C)(N)C(O)C(C)O3)c3ccc(c(Cl)c3)Oc3cc2cc(c3OC2OC(CO)C(O)C(O)C2OC2CC(C)(NCc3ccc(S(=O)(=O)c4ccc(Cl)cc4)cc3)C(O)C(C)O2)Oc2ccc(cc2Cl)C1O (stereo not drawn) [Compound 148, 4-[4-chlorophenylsulfonyl]benzyl]
≤ 0.06	≤ 0.06	≤ 0.06	CNC(CC(C)C)C(=O)NC1C(=O)NC(CC(N)=O)C(=O)NC2C(=O)NC3C(=O)NC(C(=O)NC(C(=O)O)c4cc(O)cc(O)c4-c4cc3ccc4O)C(OC3CC(C)(N)C(O)C(C)O3)c3ccc(c(Cl)c3)Oc3cc2cc(c3OC2OC(CO)C(O)C(O)C2OC2CC(C)(NCCc3ccc(Cc4ccccc4)cc3)C(O)C(C)O2)Oc2ccc(cc2Cl)C1O (stereo not drawn) [Compound 35, 4 -benzylphenethyl]
1 (≈ 0.578 µM)	0.5 (≈ 0.289 µM)	0.25 (≈ 0.144 µM)	CNC(CC(C)C)C(=O)NC1C(=O)NC(CC(N)=O)C(=O)NC2C(=O)NC3C(=O)NC(C(=O)NC(C(=O)O)c4cc(O)cc(O)c4-c4cc3ccc4O)C(OC3CC(C)(N)C(O)C(C)O3)c3ccc(c(Cl)c3)Oc3cc2cc(c3OC2OC(CO)C(O)C(O)C2OC2CC(C)(NCCCCC3CCCCC3)C(O)C(C)O2)Oc2ccc(cc2Cl)C1O (stereo not drawn) [Compound 205, 4-cyclohexylbutyl]
0.25 (≈ 0.157 µM)	2 (≈ 1.26 µM)	0.25 (≈ 0.157 µM)	CNC(CC(C)C)C(=O)NC1C(=O)NC(CC(N)=O)C(=O)NC2C(=O)NC3C(=O)NC(C(=O)NC(C(=O)O)c4cc(O)cc(O)c4-c4cc3ccc4O)C(O)c3ccc(c(Cl)c3)Oc3cc2cc(c3OC2OC(CO)C(O)C(O)C2OC2CC(C)(NCc3cccc4ccccc34)C(O)C(C)O2)Oc2ccc(cc2Cl)C1O (stereo not drawn) [Compound 180, 1-napthylmethyl]

The next lines start with the compound.

SMILES	MIC [1] [µg/mL]	MIC [2] [µg/mL]	MIC [3] [µg/mL]
CNC(CC(C)C)C(=O)NC1C(=O)NC(CC(N)=O)C(=O)NC2C(=O)NC3C(=O)NC(C(=O)NC(C(=O)O)c4cc(O)cc(O)c4-c4cc3ccc4O)C(OC3CC(C)(N)C(O)C(C)O3)c3ccc(c(Cl)c3)Oc3cc2cc(c3OC2OC(CO)C(O)C(O)C2OC2CC(C)(NCc3ccc(-c4ccc(Br)cc4)cc3)C(O)C(C)O2)Oc2ccc(cc2Cl)C1O (stereo not drawn) [Compound 230, 4-[4-bromophenyl]benzyl]	2 (≈ 1.09 µM)	≤ 0.06	≤ 0.06
CNC(CC(C)C)C(=O)NC1C(=O)NC(CC(N)=O)C(=O)NC2C(=O)NC3C(=O)NC(C(=O)NC(C(=O)O)c4cc(O)cc(O)c4-c4cc3ccc4O)C(OC3CC(C)(N)C(O)C(C)O3)c3ccc(c(Cl)c3)Oc3cc2cc(c3OC2OC(CO)C(O)C(O)C2OC2CC(C)(NCc3cnc4ccccc4c3)C(O)C(C)O2)Oc2ccc(cc2Cl)C1O (stereo not drawn) [Compound 28, 3-quinolylmethyl]	0.25 (≈ 0.144 µM)	≤ 0.06	0.25 (≈ 0.144 µM)
CNC(CC(C)C)C(=O)NC1C(=O)NC(CC(N)=O)C(=O)NC2C(=O)NC3C(=O)NC(C(=O)NC(C(=O)O)c4cc(O)cc(O)c4-c4cc3ccc4O)C(OC3CC(C)(N)C(O)C(C)O3)c3ccc(c(Cl)c3)Oc3cc2cc(c3OC2OC(CO)C(O)C(O)C2OC2CC(C)(NCC3CCC(Cc4ccccc4)CC3)C(O)C(C)O2)Oc2ccc(cc2Cl)C1O (stereo not drawn) [Compound 241, 4-[benzyl]cyclohexylmethyl]	≤ 0.06	≤ 0.06	≤ 0.06
CNC(CC(C)C)C(=O)NC1C(=O)NC(CC(N)=O)C(=O)NC2C(=O)NC3C(=O)NC(C(=O)NC(C(=O)O)c4cc(O)cc(O)c4-c4cc3ccc4O)C(OC3CC(C)(N)C(O)C(C)O3)c3ccc(c(Cl)c3)Oc3cc2cc(c3OC2OC(CO)C(O)C(O)C2OC2CC(C)(NCc3ccc(OCc4ccccc4)c(OCc4ccccc4)c3)C(O)C(C)O2)Oc2ccc(cc2Cl)C1O (stereo not drawn) [Compound 53]	2 (≈ 1.06 µM)	8 (≈ 4.22 µM)	1 (≈ 0.528 µM)
CNC(CC(C)C)C(=O)NC1C(=O)NC(CC(N)=O)C(=O)NC2C(=O)NC3C(=O)NC(C(=O)NC(C(=O)O)c4cc(O)cc(O)c4-c4cc3ccc4O)C(OC3CC(C)(N)C(O)C(C)O3)c3ccc(cc3)Oc3cc2cc(c3OC2OC(CO)C(O)C(O)C2OC2CC(C)(NCc3ccc(-c4ccccc4)cc3)C(O)C(C)O2)Oc2ccc(cc2Cl)C1O (stereo not drawn) [Compound 182, 4-phenylbenzyl]	1 (≈ 0.58 µM)	1 (≈ 0.58 µM)	1 (≈ 0.58 µM)
CNC(CC(C)C)C(=O)NC1C(=O)NC(CC(N)=O)C(=O)NC2C(=O)NC3C(=O)NC(C(=O)NC(C(=O)O)c4cc(O)cc(O)c4-c4cc3ccc4O)C(OC3CC(C)(N)C(O)C(C)O3)c3ccc(c(Cl)c3)Oc3cc2cc(c3OC2OC(CO)C(O)C(O)C2OC2CC(C)(NCc3ccc(Nc4ccccc4)cc3)C(O)C(C)O2)Oc2ccc(cc2Cl)C1O (stereo not drawn) [Compound 160, 4-anilinobenzyl]	8 (≈ 4.51 µM)	2 (≈ 1.13 µM)	≤ 0.06
CNC(CC(C)C)C(=O)NC1C(=O)NC(CC(N)=O)C(=O)NC2C(=O)NC3C(=O)NC(C(=O)NC(C(=O)O)c4cc(O)cc(O)c4-c4cc3ccc4O)C(OC3CC(C)(N)C(O)C(C)O3)c3ccc(c(Cl)c3)Oc3cc2cc(c3OC2OC(CO)C(O)C(O)C2OC2CC(C)(NCCCCCCCCOc3ccc(-c4ccccc4)cc3)C(O)C(C)O2)Oc2ccc(cc2Cl)C1O (stereo not drawn) [Compound 201, 8-[4-phenylphenoxy]octyl]	8 (≈ 4.27 µM)	4 (≈ 2.14 µM)	1 (≈ 0.534 µM)
CCCOC(c1ccccc1)c1ccc(CNC2(C)CC(OC3C(Oc4c5cc6cc4Oc4ccc(cc4Cl)C(OC4CC(C)(N)C(O)C(C)O4)C4NC(=O)C(NC(=O)C6NC(=O)C(CC(N)=O)NC(=O)C(NC(=O)C(CC(C)C)NC)C(O)c6ccc(c(Cl)c6)O5)c5ccc(O)c(c5)-c5c(O)cc(O)cc5C(C(=O)O)NC4=O)OC(CO)C(O)C3O)OC(C)C2O)cc1 (stereo not drawn) [Compound 128, 4-[alpha-propoxybenzyl]benzyl]	2 (≈ 1.09 µM)	1 (≈ 0.546 µM)	0.5 (≈ 0.273 µM)
CNC(CC(C)C)C(=O)NC1C(=O)NC(CC(N)=O)C(=O)NC2C(=O)NC3C(=O)NC(C(=O)NC(C(=O)O)c4cc(O)cc(O)c4-c4cc3ccc4O)C(OC3CC(C)(N)C(O)C(C)O3)c3ccc(c(Cl)c3)Oc3cc2cc(c3OC2OC(CO)C(O)C(O)C2OC2CC(C)(NCc3ccc(C#Cc4ccccc4)cc3)C(O)C(C)O2)Oc2ccc(cc2Cl)C1O (stereo not drawn) [Compound 79, 4-phenylethynylbenzyl]	≤ 0.06	≤ 0.06	≤ 0.06
CNC(CC(C)C)C(=O)NC1C(=O)NC(CC(N)=O)C(=O)NC2C(=O)NC3C(=O)NC(C(=O)NC(C(=O)O)c4cc(O)cc(O)c4-c4cc3ccc4O)C(OC3CC(C)(N)C(O)C(C)O3)c3ccc(c(Cl)c3)Oc3cc2cc(c3OC2OC(CO)C(O)C(O)C2OC2CC(C)(NCc3ccc(-c4ccc(C#N)cc4)cc3)C(O)C(C)O2)Oc2ccc(cc2Cl)C1O (stereo not drawn) [Compound 231, 4-[4-cyanophenyl]benzyl]	0.5 (≈ 0.28 µM)	≤ 0.06	≤ 0.06
